# Experimental data as given in patent publication US9567302B2, “Carbamate compounds and of making and using same” (Abide Therapeutics, Inc., priority 2012, dated 2017).
# Tests used:
# Assay type in all cases: biochemical
# Parameters in all cases: from tissue; host or cells: mouse brain membrane fraction
# Conditions in all cases: Table 1, mouse proteome, 30 min preincubation at 37° C.
# ABHD6 = molecular target: T1, ABHD6 (Mus musculus, UniProt Q8R2Y0); experiment: In vitro competitive activity-based protein profiling (FP-Rh), mouse ABHD6
# T1 sequence (Q8R2Y0 1-336): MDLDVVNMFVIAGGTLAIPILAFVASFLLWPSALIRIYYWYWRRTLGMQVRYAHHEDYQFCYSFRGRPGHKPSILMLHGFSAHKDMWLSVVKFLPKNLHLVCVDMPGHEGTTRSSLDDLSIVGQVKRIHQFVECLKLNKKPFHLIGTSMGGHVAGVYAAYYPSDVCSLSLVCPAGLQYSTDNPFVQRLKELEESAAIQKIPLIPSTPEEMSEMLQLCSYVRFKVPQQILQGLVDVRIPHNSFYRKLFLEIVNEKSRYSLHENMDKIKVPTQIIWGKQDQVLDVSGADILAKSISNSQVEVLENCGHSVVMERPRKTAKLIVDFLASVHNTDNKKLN
# Procedure: (§1) In Vitro Competitive Activity-Based Protein Profiling.
# (§2) Proteomes (mouse brain membrane fraction or cell lysates) (50 μL, 1.0 mg/ml total protein concentration) were preincubated with varying concentrations of inhibitors at 37° C. After 30 min, FP-Rh (1.0 μL, 50 μM in DMSO) was added and the mixture was incubated for another 30 min at 37° C. Reactions were quenched with SDS loading buffer (50 μL—4×) and run on SDS-PAGE.
# MAGL = molecular target: T2, MAGL (Mus musculus, UniProt O35678); experiment: In vitro competitive activity-based protein profiling (FP-Rh), mouse MAGL
# T2 sequence (O35678 1-303): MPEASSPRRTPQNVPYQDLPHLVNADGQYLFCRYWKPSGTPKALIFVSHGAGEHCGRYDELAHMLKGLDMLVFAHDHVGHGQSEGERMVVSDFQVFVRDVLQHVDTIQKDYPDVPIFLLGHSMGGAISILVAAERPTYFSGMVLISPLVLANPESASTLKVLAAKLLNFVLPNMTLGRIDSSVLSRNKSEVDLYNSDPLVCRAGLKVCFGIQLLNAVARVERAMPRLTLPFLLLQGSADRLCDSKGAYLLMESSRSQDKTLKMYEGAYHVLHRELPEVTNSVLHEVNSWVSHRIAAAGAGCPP
# Procedure: as §1, §2
# FAAH = molecular target: T3, FAAH (Mus musculus, UniProt O08914); experiment: In vitro competitive activity-based protein profiling (FP-Rh), mouse FAAH
# T3 sequence (O08914 1-579): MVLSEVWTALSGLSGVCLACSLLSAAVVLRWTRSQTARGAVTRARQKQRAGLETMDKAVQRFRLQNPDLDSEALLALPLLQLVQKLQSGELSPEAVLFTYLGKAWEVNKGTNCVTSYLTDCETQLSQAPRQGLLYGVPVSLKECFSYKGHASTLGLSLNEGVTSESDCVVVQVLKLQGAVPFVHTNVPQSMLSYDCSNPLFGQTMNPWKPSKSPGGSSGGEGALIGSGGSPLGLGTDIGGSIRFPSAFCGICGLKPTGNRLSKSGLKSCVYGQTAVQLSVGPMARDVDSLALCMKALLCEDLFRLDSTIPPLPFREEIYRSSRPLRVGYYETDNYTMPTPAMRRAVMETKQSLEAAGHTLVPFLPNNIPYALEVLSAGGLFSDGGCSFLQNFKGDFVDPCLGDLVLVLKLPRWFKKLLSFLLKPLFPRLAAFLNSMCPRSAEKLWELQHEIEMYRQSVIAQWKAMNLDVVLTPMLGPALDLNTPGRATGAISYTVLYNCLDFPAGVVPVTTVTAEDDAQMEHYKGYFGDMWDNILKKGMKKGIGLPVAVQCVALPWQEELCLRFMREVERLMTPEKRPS
# Procedure: as §1, §2
smiles,measurement,setting,value
"C#CCCC(=O)N1CCN(C(=O)ON2C(=O)CCC2=O)CC1 [Example 26, 2,5-Dioxopyrrolidin-1-yl 4-(pent-4-ynoyl)piperazine-1-carboxylate]",IC50,ABHD6,> 10000 nM
same,IC50,MAGL,> 10000 nM
same,IC50,FAAH,> 10000 nM
"C#CCCCCNC(=O)ON1C(=O)CCC1=O [Example 28, 2,5-Dioxopyrrolidin-1-yl N-(hex-5-yn-1-yl)carbamate]",IC50,ABHD6,1000 to 10000 nM
same,IC50,MAGL,> 10000 nM
same,IC50,FAAH,1000 to 10000 nM
"O=C(ON1C(=O)CCC1=O)N1CCCC1 [Example 29, 2,5-Dioxopyrrolidin-1-yl pyrrolidine-1-carboxylate]",IC50,ABHD6,> 10000 nM
same,IC50,MAGL,> 10000 nM
same,IC50,FAAH,> 10000 nM
"O=C(ON1C(=O)CCC1=O)N1CCC1 [Example 30, 2,5-Dioxopyrrolidin-1-yl azetidine-1-carboxylate]",IC50,ABHD6,> 10000 nM
same,IC50,MAGL,> 10000 nM
same,IC50,FAAH,> 10000 nM
"CCCCCCCC/C=C\CCCCCCCCNC(=O)ON1C(=O)CCC1=O [Example 31, 2,5-Dioxopyrrolidin-1-yl N-[(9Z)-octadec-9-en-1-yl]carbamate]",IC50,ABHD6,1000 to 10000 nM
same,IC50,MAGL,1000 to 10000 nM
same,IC50,FAAH,1000 to 10000 nM
"O=C(ON1C(=O)c2ccccc2C1=O)N1CCC(CCc2ccc(Cl)cc2)CC1 [Example 32, 1,3-Dioxo-2,3-dihydro-1H-isoindol-2-yl 4-[2-(4-chlorophenyl)ethyl]piperidine-1-carboxylate]",IC50,ABHD6,< 100 nM
same,IC50,MAGL,1000 to 10000 nM
same,IC50,FAAH,< 100 nM
"O=C(ON1C(=O)c2ccccc2C1=O)N1CCN(C(c2ccc(Cl)cc2)c2ccc(Cl)cc2)CC1 [Example 33, 1,3-Dioxo-2,3-dihydro-1H-isoindol-2-yl 4-[bis(4-chlorophenyl)methyl]piperazine-1-carboxylate]",IC50,ABHD6,100 to 1000 nM
same,IC50,MAGL,> 10000 nM
same,IC50,FAAH,> 10000 nM
"COc1ccc(N2CCN(C(=O)ON3C(=O)c4ccccc4C3=O)CC2)cc1 [Example 34, 1,3-Dioxo-2,3-dihydro-1H-isoindol-2-yl 4-(4-methoxyphenyl)piperazine-1-carboxylate]",IC50,ABHD6,< 100 nM
same,IC50,MAGL,> 10000 nM
same,IC50,FAAH,100 to 1000 nM
"O=C(ON1C(=O)CCC1=O)N1CCOCC1 [Example 38, 2,5-Dioxopyrrolidin-1-yl morpholine-4-carboxylate]",IC50,ABHD6,> 10000 nM
same,IC50,MAGL,> 10000 nM
same,IC50,FAAH,> 10000 nM
"CC1(C)CC(=O)N(OC(=O)N2CCN(C(c3ccc(Cl)cc3)c3ccc(Cl)cc3)CC2)C1=O [Example 42, 3,3-Dimethyl-2,5-dioxopyrrolidin-1-yl 4-(bis(4-chlorophenyl)methyl)piperazine-1-carboxylate]",IC50,ABHD6,1000 to 10000 nM
same,IC50,MAGL,1000 to 10000 nM
same,IC50,FAAH,> 10000 nM
"CCCC1CC(=O)N(OC(=O)N2CCN(C(c3ccc(Cl)cc3)c3ccc(Cl)cc3)CC2)C1=O (stereo not drawn) [Example 43, 2,5-Dioxo-3-propylpyrrolidin-1-yl 4-(bis(4-chlorophenyl)methyl)piperazine-1-carboxylate]",IC50,ABHD6,100 to 1000 nM
same,IC50,MAGL,100 to 1000 nM
same,IC50,FAAH,> 10000 nM
"O=C(ON1C(=O)CC(c2ccccc2)C1=O)N1CCN(C(c2ccc(Cl)cc2)c2ccc(Cl)cc2)CC1 (stereo not drawn) [Example 44, 2,5-Dioxo-3-phenylpyrrolidin-1-yl 4-(bis(4-chlorophenyl)methyl)piperazine-1-carboxylate]",IC50,ABHD6,1000 to 10000 nM
same,IC50,MAGL,1000 to 10000 nM
same,IC50,FAAH,> 10000 nM
"O=C(ON1C(=O)C2CCCCC2C1=O)N1CCN(C(c2ccc(Cl)cc2)c2ccc(Cl)cc2)CC1 (stereo not drawn) [Example 45, 1,3-Dioxohexahydro-1H-isoindol-2(3H)-yl 4-(bis(4-chlorophenyl)methyl)piperazine-1-carboxylate]",IC50,ABHD6,100 to 1000 nM
same,IC50,MAGL,1000 to 10000 nM
same,IC50,FAAH,> 10000 nM
"CC(C)C1NC(=O)N(OC(=O)N2CCN(C(c3ccc(Cl)cc3)c3ccc(Cl)cc3)CC2)C1=O (stereo not drawn) [Example 47, 4-Isopropyl-2,5-dioxoimidazolidin-1-yl 4-(bis(4-chlorophenyl)methyl)piperazine-1-carboxylate]",IC50,ABHD6,100 to 1000 nM
same,IC50,MAGL,100 to 1000 nM
same,IC50,FAAH,> 10000 nM
